Measured values published in patent US12433873B2, “Microtubule polymerization inhibitor prodrugs and methods of using the same” (University of Maryland, Baltimore, priority 2017, dated 2025).
“Also recorded” adds a separate entry of the source.

Experiments:
[1] = tested on: mdx mice; test: In vivo nerve evoked torque and eccentric injury of the gastrocnemius muscle in mdx mice; set-up: species or system mouse; settings: 20 eccentric contractions of gastrocnemius, FIG. 2D
Protocol: FIGS. 2A-2D illustrate that targeting microtubule density in vivo is solely sufficient to decrease contraction-induced injury in mdx mice. Nerve evoked torque and eccentric injury of the gastrocnemius muscle in vivo (FIG. 2A). […] Normalized torque records of the initial (time=0; wild-type in black, mdx in red) and 20th (grey) eccentric contractions (FIG. 2C).
Skeletal Muscle Function. Evan's blue dye (EBD) (5 μg/μl solution in PBS; 5 μl/g body weight) can be injected I.P. 24 hrs before the assay. The in vivo assessment of the nerve evoked isometric force vs. stimulation frequency relationship of the gastrocnemius can be determined as described in the art. The maximal isometric force (post hoc normalized to estimated cross sectional area) can be taken as the measure of functional quality of the muscle. […]
Susceptibility to contraction injury (skeletal muscle) can be assessed across each treatment cohort. As in FIG. 2, the % force deficit after 20 eccentric contractions of the gastrocnemius muscle can be determined. […] Thirty minutes after the last eccentric contraction, blood (orbital sinus) can be collected and analyzed for creatine kinase (CK) activity. […] After the trials, the muscle tissue can be processed and % EBD positive fibers can be used to quantitate the extent of muscle damage at rest (uninjured leg) or with injury.

[2] = tested on: mdx muscle fibers; test: X-ROS, Ca2+ signaling and microtubule density in mdx muscle fibers in vitro; assay type: cell-based, mouse
Excerpt: FIGS. 1A-1E illustrate that microtubules underlie dysfunction in DMD. Aggregate DFF signals from WT (Black; n=5) and mdx (Red; n=6) muscle fibers (FIG. 1A). Mean values from A show a significant increase in X-ROS in the mdx (*p<0.05) that is blunted by colchicine (FIG. 1B). X-ROS leads to Ca^2+ influx that is blocked by microtubule depolymerization (FIG. 1C). Microtubule density is elevated in mdx fibers and reduced by colchicine (FIGS. 1D and 1E).
In murine DMD (mdx), it has been discovered that disease-driven alterations in microtubule network density and properties underscore the deleterious excess of Nox2-ROS and Ca^2+ signals in skeletal muscle and heart. Using colchicine, a drug that promotes microtubule depolymerization, it has been shown that reducing microtubule density normalized the dysregulated ROS and Ca^2+ signaling in DMD muscle fibers in vitro (see FIG. 1). […] The significance of these pre-clinical discoveries was bolstered by transcriptional evidence (RNASeq) for microtubule excess in muscle biopsy samples from affected DMD patients.

[3] = tested on: mdx mice; test: Isoproterenol cardiac stress test in mdx mice; assay type: in vivo, mouse
Protocol: FIGS. 5A-5D illustrate that colchicine blunts isoproterenol-induced cardiac damage in mdx and prevents cardiac arrhythmias. Wild-type and mdx mice were injected with Evan's blue dye one day prior then underwent an isoproterenol cardiac stress test and heart rate measured. […] Conversely, mdx mice cannot upregulate their heart rate to the same extent (˜2 fold) and only do so for a short period (30-45 min) before suffering severe arrhythmias and cardiac death, with only 10% survival.
Isoproterenol Cardiac Stress and Sarcolemmal Damage of the Heart. Catecholaminergic work-load stress induces atrial fibrillation (AF), ventricular tachycardia (VT) and sudden cardiac death (SCD) in mdx mice and this can be prevented by colchicine treatment (FIG. 5). To assess if colchicine pro-drugs prevent AF, VT and SCD, Evan's blue dye (EBD) (5 μg/μl solution in PBS; 5 μl/g body weight) can be injected I.P. 24 hrs before the assay. Mice are first anesthetized with sodium pentobarbital, and the heart rate monitored by a single-lead electrocardiogram. Isoproterenol is then used to pharmacologically increase the level of mechanical stress imposed on the heart. The mice are killed 3 hours after the administration of isoproterenol and the heart mounted in cryomatrix, sectioned and assessed for sarcolemmal damage.

[4] = tested on: OCY-293 cells; test: In vitro microtubule destabilization in OCY-293 cells stably expressing GFP-tubulin; assay type: cell-based; settings: 10-120 minutes, 0.3-100 μM
Protocol: Cell treatment: OCY-293 cells stably expressing GFP-tubulin were cultured in 96-well plates at 37° C. in modified DMEM. […] Control cells were treated with vehicle. DAPI was added to each well to identify the nuclei. At each time point, cells were fixed with 4% paraformaldehyde and stored at 4° C. in the dark until imaging.
Imaging and Analysis: Cells were imaged to assess microtubule structure using fluorescence microscopy (Nikon TIe) with 5 images taken in different locations of each well. The images were digitized in two channels (GFP to visualize tubulin, and therefore microtubules; and DAPI to visualize nuclei). The microtubule area was traced, and nuclei were counted using predictive software (Nikon Elements v4.51) via unbiased automated measurements of each image in each of the wells. The microtubule area was normalized to the number of nuclei.

[5] = cited from earlier work

For `COc1cc(C(C)=O)ccc1O` [apocynin], the “force loss / contraction injury after eccentric contractions” value [1] was “significant protection from force loss”.

With `COc1cc2c(c(OC)c1OC)-c1ccc(OC)c(=O)cc1[C@@H](NC(C)=O)CC2` [colchicine] the “Microtubule density in mdx fibers” value ([2]; FIGS. 1D and 1E) was “reduced”, the “dysregulated ROS and Ca2+ signaling in DMD muscle fibers” value ([2]; in vitro, FIG. 1) was “normalized” and the “X-ROS (DFF signal) increase in mdx muscle fibers” value ([2]; mdx muscle fibers, FIG. 1B) was “blunted”. The “force loss / contraction injury after eccentric contractions” value [1] was “reduced contraction injury; also recorded: significant protection from force loss”, the “cardiac death and arrhythmia” value ([3]; mdx mice after isoproterenol cardiac stress) was “prevents cardiac death and arrhythmia” and the survival ([3]; mdx mice after isoproterenol cardiac stress (untreated mdx 10% survival)) was 90%. The “cardiac integrity (histological analysis, Evan's blue)” value ([3]; mdx mice, FIGS. 5C and 5D) was “significant preservations of cardiac integrity”, the “increase in cardiac workload” value ([3]; mdx mice, compared to untreated animals) was “supports the increase in cardiac workload significantly” and the “microtubule depolymerization (microtubule area normalized to number of nuclei)” value [4] was “rapid depolymerization at low concentrations”. For the same compound, the “therapeutic window: lethal dose” value ([5]; in vivo) was 16-30 × therapeutic dose, the “absorption, median” value ([5]; oral) was 45% and the half-life ([5]; orally dosed) was 1 to 2.7 h. For the same compound, the “time of peak plasma concentration” value ([5]; orally dosed) was 30 to 90 min.

In the case of `COc1cc2c(c(OC)c1OC)-c1ccc(OC)c(=O)cc1[C@@H](N(C)C(=O)OC(C)OC(C)=O)CC2` (stereo partly shown) [compound 7], the “microtubule depolymerization (microtubule area normalized to number of nuclei)” value [4] was “delayed and reduced depolymerization at all concentrations”.

With `CCCCCCCCCCCCCCCC(=O)OCOC(=O)N(C)[C@H]1CCc2cc(OC)c(OC)c(OC)c2-c2ccc(OC)c(=O)cc21` [compound 10] the “microtubule depolymerization (microtubule area normalized to number of nuclei)” value [4] was “dampened depolymerization at higher concentrations only”.
